Test results from ChEMBL document CHEMBL3885861, “Open TG-GATES”.

Species on record: Rattus norvegicus
Experiment: Open TG-GATES - Regimen: Daily Repeat
Type: toxicity, organism-based, Sprague-Dawley
Design: regimen Daily Repeat, gender Male, age 6 weeks
Conditions: in vivo, po, 0 mg/kg, route gavage, dose level Control; for APTT / Bas / Eos / Fbg / Hb / Ht / Lym / MCH / MCHC / MCV / Mono / Neu / PT / Plat / RBC / Ret / WBC: tissue Blood; for KIDNEY_L / KIDNEY_R / KIDNEY_TOTAL: tissue Kidney; for LIVER: tissue Liver; for A/G / ALP / ALT / AST / BUN / CRE / Ca / Cl / DBIL / GLC / IP / K / LDH / Na / PL / RALB / TBIL / TC / TG / TP / gamma-GTP: tissue Plasma

For NC(=O)N/N=C/c1ccc([N+](=O)[O-])o1 [NITROFURAZONE], the TERMINAL_BW (72 h, time 3 day) was 218.5 g, the APTT (72 h, time 3 day) was 14.6 s and the Bas (72 h, time 3 day) was 0%. For the same molecule, the Eos (72 h, time 3 day) was 0.6%, the Fbg (72 h, time 3 day) was 279.4 mg/dL and the Hb (72 h, time 3 day) was 12.9 g/dL. For the same molecule, the Ht (72 h, time 3 day) was 39.6%, the Lym (72 h, time 3 day) was 81% and the MCH (72 h, time 3 day) was 21 pg. It also gave an MCHC (72 h, time 3 day) of 32.6%, an MCV (72 h, time 3 day) of 64.4 fL and a Mono (72 h, time 3 day) of 2.6%. The Neu (72 h, time 3 day) was 15%, the PT (72 h, time 3 day) was 14.5 s and the Plat (72 h, time 3 day) was 111.2 x10_4/uL. The RBC (72 h, time 3 day) was 614.6 x10_4/ul, the Ret (72 h, time 3 day) was 8.9% and the WBC (72 h, time 3 day) was 76.9 x10_2/uL. For the same molecule, the KIDNEY_L (72 h, time 3 day) was 0.9 g, the KIDNEY_R (72 h, time 3 day) was 0.9 g and the KIDNEY_TOTAL (72 h, time 3 day) was 1.7 g. For the same molecule, the LIVER (72 h, time 3 day) was 9.8 g, the A/G (72 h, time 3 day) was 0.9 and the ALP (72 h, time 3 day) was 2147 IU/L. The ALT (72 h, time 3 day) was 51.2 IU/L, the AST (72 h, time 3 day) was 78.2 IU/L and the BUN (72 h, time 3 day) was 16 mg/dL. The CRE (72 h, time 3 day) was 0.2 mg/dL, the Ca (72 h, time 3 day) was 11.4 mg/dL and the Cl (72 h, time 3 day) was 106.2 meq/L. For the same molecule, the DBIL (72 h, time 3 day) was 0.016 mg/dL, the GLC (72 h, time 3 day) was 178.2 mg/dL and the IP (72 h, time 3 day) was 7.9 mg/dL. It also gave a K (72 h, time 3 day) of 4.4 meq/L, an LDH (72 h, time 3 day) of 79 IU/L and a Na (72 h, time 3 day) of 141.6 meq/L. It also gave a PL (72 h, time 3 day) of 161.2 mg/dL, an RALB (72 h, time 3 day) of 2.6 g/dL and a TBIL (72 h, time 3 day) of 0.046 mg/dL. The TC (72 h, time 3 day) was 92.4 mg/dL, the TG (72 h, time 3 day) was 100.8 mg/dL and the TP (72 h, time 3 day) was 5.6 g/dL. It also gave a gamma-GTP (72 h, time 3 day) of 1 IU/L, a TERMINAL_BW ([…], time 7 day) of 259.3 g and a TERMINAL_BW ([…], time 14 day) of 324.7 g. The TERMINAL_BW ([…], time 28 day) was 406 g, the APTT ([…], time 7 day) was 16.9 s and the Bas ([…], time 7 day) was 0.2%. The Eos ([…], time 7 day) was 1%, the Fbg ([…], time 7 day) was 268 mg/dL and the Hb ([…], time 7 day) was 13.4 g/dL. The Ht ([…], time 7 day) was 39.9%, the Lym ([…], time 7 day) was 75% and the MCH ([…], time 7 day) was 21.1 pg. It also gave an MCHC ([…], time 7 day) of 33.5%, an MCV ([…], time 7 day) of 62.8 fL and a Mono ([…], time 7 day) of 3.2%. For the same molecule, the Neu ([…], time 7 day) was 20.2%, the PT ([…], time 7 day) was 14.4 s and the Plat ([…], time 7 day) was 112.6 x10_4/uL. For the same molecule, the RBC ([…], time 7 day) was 636.4 x10_4/ul, the Ret ([…], time 7 day) was 7% and the WBC ([…], time 7 day) was 96.1 x10_2/uL. The APTT ([…], time 14 day) was 14.3 s, the Bas ([…], time 14 day) was 0.2% and the Eos ([…], time 14 day) was 0.8%. The Fbg ([…], time 14 day) was 303 mg/dL, the Hb ([…], time 14 day) was 13.6 g/dL and the Ht ([…], time 14 day) was 41.4%. For the same molecule, the Lym ([…], time 14 day) was 77.8%, the MCH ([…], time 14 day) was 20.7 pg and the MCHC ([…], time 14 day) was 32.8%. For the same molecule, the MCV ([…], time 14 day) was 63.2 fL, the Mono ([…], time 14 day) was 2% and the Neu ([…], time 14 day) was 18.2%. The PT ([…], time 14 day) was 14.4 s, the Plat ([…], time 14 day) was 121.6 x10_4/uL and the RBC ([…], time 14 day) was 657.2 x10_4/ul. For the same molecule, the Ret ([…], time 14 day) was 5.7%, the WBC ([…], time 14 day) was 91.3 x10_2/uL and the APTT ([…], time 28 day) was 16.2 s. The Bas ([…], time 28 day) was 0%, the Eos ([…], time 28 day) was 1.2% and the Fbg ([…], time 28 day) was 275.6 mg/dL. For the same molecule, the Hb ([…], time 28 day) was 15 g/dL, the Ht ([…], time 28 day) was 44.5% and the Lym ([…], time 28 day) was 77%. It also gave an MCH ([…], time 28 day) of 19.5 pg, an MCHC ([…], time 28 day) of 33.7% and an MCV ([…], time 28 day) of 58 fL. For the same molecule, the Mono ([…], time 28 day) was 1.8%, the Neu ([…], time 28 day) was 19.4% and the PT ([…], time 28 day) was 14.9 s. For the same molecule, the Plat ([…], time 28 day) was 105 x10_4/uL, the RBC ([…], time 28 day) was 767.2 x10_4/ul and the Ret ([…], time 28 day) was 2.6%. The WBC ([…], time 28 day) was 74.7 x10_2/uL, the KIDNEY_L ([…], time 7 day) was 1.1 g and the KIDNEY_R ([…], time 7 day) was 1.1 g. It also gave a KIDNEY_TOTAL ([…], time 7 day) of 2.1 g, a KIDNEY_L ([…], time 14 day) of 1.3 g and a KIDNEY_R ([…], time 14 day) of 1.2 g. The KIDNEY_TOTAL ([…], time 14 day) was 2.5 g, the KIDNEY_L ([…], time 28 day) was 1.5 g and the KIDNEY_R ([…], time 28 day) was 1.3 g. For the same molecule, the KIDNEY_TOTAL ([…], time 28 day) was 2.8 g, the LIVER ([…], time 7 day) was 12.2 g and the LIVER ([…], time 14 day) was 15.1 g. It also gave an LIVER ([…], time 28 day) of 16.8 g, an A/G ([…], time 7 day) of 0.8 and an ALP ([…], time 7 day) of 1832.4 IU/L. It also gave an ALT ([…], time 7 day) of 45.8 IU/L, an AST ([…], time 7 day) of 69 IU/L and a BUN ([…], time 7 day) of 15.6 mg/dL. It also gave a CRE ([…], time 7 day) of 0.2 mg/dL, a Ca ([…], time 7 day) of 11.2 mg/dL and a Cl ([…], time 7 day) of 104 meq/L. For the same molecule, the DBIL ([…], time 7 day) was 0.022 mg/dL, the GLC ([…], time 7 day) was 196.2 mg/dL and the IP ([…], time 7 day) was 7.5 mg/dL. The K ([…], time 7 day) was 3.6 meq/L, the LDH ([…], time 7 day) was 69 IU/L and the Na ([…], time 7 day) was 141.6 meq/L. For the same molecule, the PL ([…], time 7 day) was 146.4 mg/dL, the RALB ([…], time 7 day) was 2.6 g/dL and the TBIL ([…], time 7 day) was 0.054 mg/dL. For the same molecule, the TC ([…], time 7 day) was 76.2 mg/dL, the TG ([…], time 7 day) was 93.2 mg/dL and the TP ([…], time 7 day) was 5.6 g/dL. It also gave a gamma-GTP ([…], time 7 day) of 1 IU/L, an A/G ([…], time 14 day) of 0.8 and an ALP ([…], time 14 day) of 1410 IU/L. It also gave an ALT ([…], time 14 day) of 43.4 IU/L, an AST ([…], time 14 day) of 65.6 IU/L and a BUN ([…], time 14 day) of 17.4 mg/dL. The CRE ([…], time 14 day) was 0.2 mg/dL, the Ca ([…], time 14 day) was 11 mg/dL and the Cl ([…], time 14 day) was 105.4 meq/L. The DBIL ([…], time 14 day) was 0.012 mg/dL, the GLC ([…], time 14 day) was 195.4 mg/dL and the IP ([…], time 14 day) was 7.5 mg/dL. The K ([…], time 14 day) was 4 meq/L, the LDH ([…], time 14 day) was 70 IU/L and the Na ([…], time 14 day) was 142.8 meq/L. It also gave a PL ([…], time 14 day) of 159.8 mg/dL, an RALB ([…], time 14 day) of 2.6 g/dL and a TBIL ([…], time 14 day) of 0.046 mg/dL. The TC ([…], time 14 day) was 79.2 mg/dL, the TG ([…], time 14 day) was 119 mg/dL and the TP ([…], time 14 day) was 5.8 g/dL. The gamma-GTP ([…], time 14 day) was 1.2 IU/L, the A/G ([…], time 28 day) was 0.8 and the ALP ([…], time 28 day) was 1109.8 IU/L. For the same molecule, the ALT ([…], time 28 day) was 38 IU/L, the AST ([…], time 28 day) was 62.4 IU/L and the BUN ([…], time 28 day) was 16.6 mg/dL. It also gave a CRE ([…], time 28 day) of 0.2 mg/dL, a Ca ([…], time 28 day) of 10.9 mg/dL and a Cl ([…], time 28 day) of 104 meq/L. It also gave a DBIL ([…], time 28 day) of 0.014 mg/dL, a GLC ([…], time 28 day) of 192 mg/dL and an IP ([…], time 28 day) of 6.9 mg/dL. It also gave a K ([…], time 28 day) of 3.4 meq/L, an LDH ([…], time 28 day) of 61.2 IU/L and a Na ([…], time 28 day) of 145.2 meq/L. The PL ([…], time 28 day) was 139.6 mg/dL, the RALB ([…], time 28 day) was 2.7 g/dL and the TBIL ([…], time 28 day) was 0.068 mg/dL. The TC ([…], time 28 day) was 60.6 mg/dL, the TG ([…], time 28 day) was 145.4 mg/dL and the TP ([…], time 28 day) was 6.1 g/dL. It also gave a gamma-GTP ([…], time 28 day) of 0.8 IU/L.
